Laboratory results reported in ChEMBL document CHEMBL1201862, “PubChem BioAssay data set” (2004).
Active and inactive are the calls of the source. For most assays here, no stated cut-off is given here; in the data, actives have a measured EC50 and inactives only a lower limit.

Assays:
[1] = Trypanosoma cruzi growth suppression in host cells – NIH3T3 host cells, beta-gal luminescence, confirmation (AID 2044); assay type: functional, cell-based;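 further: intracellular parasites grown in NIH/3T3 mouse fibroblasts as host cells; luminescent beta-galactosidase reporter signal from transgenic T. cruzi replicating inside host cells; inhibitors lower the luminescence signal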
[2] = NIH3T3 cell viability loss – ATP luminescence, mouse fibroblasts, counter-screen, dose response (AID 2010); assay type: functional, cell-based;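 further: cells exposed to compound for about 90 hours before reading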
[3] = target: T1, Zinc finger protein mex-5 (Caenorhabditis elegans, UniProt Q9XUB2); assay: potency of MEX-5 RNA-binding blockers – biochemical, C. elegans, fluorescence polarization, dose response (AID 1960)
T1 sequence (Q9XUB2 whole entry): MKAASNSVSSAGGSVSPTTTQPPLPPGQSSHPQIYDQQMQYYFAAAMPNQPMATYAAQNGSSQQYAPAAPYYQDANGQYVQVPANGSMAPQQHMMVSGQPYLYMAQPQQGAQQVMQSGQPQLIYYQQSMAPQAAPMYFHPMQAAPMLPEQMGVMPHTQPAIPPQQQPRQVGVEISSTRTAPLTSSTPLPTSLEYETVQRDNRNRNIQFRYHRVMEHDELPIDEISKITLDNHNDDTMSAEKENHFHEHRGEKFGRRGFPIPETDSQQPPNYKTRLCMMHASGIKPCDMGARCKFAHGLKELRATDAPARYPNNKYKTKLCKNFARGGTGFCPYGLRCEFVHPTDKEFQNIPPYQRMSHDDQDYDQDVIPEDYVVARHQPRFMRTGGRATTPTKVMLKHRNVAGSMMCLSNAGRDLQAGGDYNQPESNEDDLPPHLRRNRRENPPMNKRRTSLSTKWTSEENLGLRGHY

[4] = luciferase reporter signal suppression in cells – H4 neuroglioma cells, luminescence, dose response (AID 1990); assay type: functional, cell-based
[5] = alpha-synuclein stem-loop luciferase translation blockers – H4 neuroglioma cells, luminescence, confirmation (AID 1988); assay type: functional, cell-based
[6] = target: T2, RNA-binding protein pos-1 (Caenorhabditis elegans, UniProt G5EF15); assay: disruptors of C. elegans POS-1 RNA interaction – biochemical, fluorescence polarization, dose response (AID 1964);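 further: purified POS-1 fused to maltose binding protein made in E. coli; potency of compounds blocking POS-1 binding to fluorescent RNA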
T2 sequence (G5EF15 whole entry): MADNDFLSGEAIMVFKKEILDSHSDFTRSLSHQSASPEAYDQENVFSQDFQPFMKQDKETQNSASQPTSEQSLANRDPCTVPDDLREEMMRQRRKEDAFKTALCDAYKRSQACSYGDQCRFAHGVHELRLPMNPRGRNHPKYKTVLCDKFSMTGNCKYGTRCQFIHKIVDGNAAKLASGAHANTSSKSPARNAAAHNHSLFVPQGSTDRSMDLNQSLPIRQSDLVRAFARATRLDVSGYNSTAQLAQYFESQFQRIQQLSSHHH

[7] = Luminescence Cell-Based Dose Response HTS to Identify Inhibitors of 5'UTR Stem-Loop Driven Prion Protein mRNA Translation in H4 Neuroglioblastoma Cells. [Related pubchem assays: 1827 (Project Summary), 1813 (Primary HTS)]; assay type: functional
[8] = target: T3, Short transient receptor potential channel 4 (Mus musculus, UniProt Q9QUQ5); assay: block of DAMGO-driven TRPC4 calcium entry – cell-based, HEK293 TRPC4/mu-opioid, Fluo-4 calcium, dose response (AID 434942); assay type: functional;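 further: potency of inhibitors blocking the TRPC4 calcium response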
T3 sequence (Q9QUQ5 whole entry): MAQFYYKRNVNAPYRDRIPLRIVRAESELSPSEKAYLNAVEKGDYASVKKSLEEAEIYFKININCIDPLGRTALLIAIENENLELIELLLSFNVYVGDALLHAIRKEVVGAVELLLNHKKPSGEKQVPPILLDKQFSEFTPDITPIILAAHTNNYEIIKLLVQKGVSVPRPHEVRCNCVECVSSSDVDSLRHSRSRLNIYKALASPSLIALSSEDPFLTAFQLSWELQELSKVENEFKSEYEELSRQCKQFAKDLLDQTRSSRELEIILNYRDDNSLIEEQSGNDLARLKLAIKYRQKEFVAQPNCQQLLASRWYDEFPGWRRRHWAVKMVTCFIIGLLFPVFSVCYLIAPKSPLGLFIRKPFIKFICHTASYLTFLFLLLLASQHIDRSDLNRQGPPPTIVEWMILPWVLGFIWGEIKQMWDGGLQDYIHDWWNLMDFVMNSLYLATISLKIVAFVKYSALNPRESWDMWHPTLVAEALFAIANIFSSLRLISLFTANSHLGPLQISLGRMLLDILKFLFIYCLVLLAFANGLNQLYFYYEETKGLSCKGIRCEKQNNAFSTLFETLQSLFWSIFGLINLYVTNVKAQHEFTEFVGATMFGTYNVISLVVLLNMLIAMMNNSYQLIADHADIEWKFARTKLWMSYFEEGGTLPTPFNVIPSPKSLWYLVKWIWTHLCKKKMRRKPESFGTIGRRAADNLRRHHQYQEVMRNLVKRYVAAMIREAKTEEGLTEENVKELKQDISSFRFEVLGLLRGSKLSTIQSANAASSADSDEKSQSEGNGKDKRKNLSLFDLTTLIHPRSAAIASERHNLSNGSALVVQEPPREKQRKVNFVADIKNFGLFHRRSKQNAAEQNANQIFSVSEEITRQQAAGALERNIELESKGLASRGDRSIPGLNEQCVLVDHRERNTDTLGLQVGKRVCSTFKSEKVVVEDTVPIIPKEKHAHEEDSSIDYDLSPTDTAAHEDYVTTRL

[9] = viability of PTEN-deleted HCT116 cells – cell-based, HCT116 PTEN knockout, dose response (AID 1047); assay type: functional;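 further: HCT116 colon tumor cells with PTEN knocked out; cells exposed to compound for 60 hours before readout; potency for loss of cell viability measured by luminescence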
[10] = viability of HCT116 lacking mutant beta-catenin – cell-based, human colon tumor, dose response (AID 1045); assay type: functional;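 further: HCT116 colon tumor cells with beta catenin knocked out; cells exposed to compound for 60 hours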
cells [11] = assay type: functional, cell-based
cells [12] = assay type: functional, cell-based; remark: listed apart in the source
Fatty acid synthase = Fatty acid synthase (Homo sapiens, UniProt P49327); assay: inhibition of human FAS-TE enzyme activity – biochemical, kinetic fluorescence intensity, dose response (AID 624326); assay type: functional;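 further: rate of fluorescence rise from hydrolysis of a fluorogenic O-methyl fluorescein ester substrate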
INS1 = assay: INS-1E survival protection against cytokine death – cell-based, luminescence, retest, dose response (AID 449756); assay type: functional; conditions: Rattus norvegicus;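 further: cell death triggered by IL-1 beta plus TNF-alpha plus IFN-gamma mixture; protective hits raise ATP signal compared with cytokine alone wells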
P388/ADR = assay: cells; assay type: functional; conditions: Mus musculus
SN12K1 = assay: cells; assay type: functional; conditions: Homo sapiens
P388 = assay: cells; assay type: functional; conditions: Mus musculus
H4 = assay: Luminescence Cell-Based Dose Response HTS to Identify Activators of 5'UTR Stem-Loop Driven Prion Protein mRNA Translation in H4 Neuroglioblastoma Cells. [Related pubchem assays: 1829 (Project Summary), 1814 (Primary HTS)]; assay type: functional; conditions: Homo sapiens
[13] = Luminescence Cell-Based Dose Response HTS to Identify Activators of Luciferase Translation or Activity in H4 […] Cells. [Related pubchem assays: 1829 (Project Summary), 1814 (Primary HTS)]; assay type: functional
[14] = Luminescence Cell-Based Dose Confirmation HTS to Identify Activators of 5'UTR Stem-Loop Driven Alpha-Synuclein mRNA Translation in H4 Neuroglioblastoma Cells. [Related pubchem assays: 1829 (Project Summary), 1814 (Primary HTS)]; assay type: functional

Chain of Fatty acid synthase (P49327 whole entry): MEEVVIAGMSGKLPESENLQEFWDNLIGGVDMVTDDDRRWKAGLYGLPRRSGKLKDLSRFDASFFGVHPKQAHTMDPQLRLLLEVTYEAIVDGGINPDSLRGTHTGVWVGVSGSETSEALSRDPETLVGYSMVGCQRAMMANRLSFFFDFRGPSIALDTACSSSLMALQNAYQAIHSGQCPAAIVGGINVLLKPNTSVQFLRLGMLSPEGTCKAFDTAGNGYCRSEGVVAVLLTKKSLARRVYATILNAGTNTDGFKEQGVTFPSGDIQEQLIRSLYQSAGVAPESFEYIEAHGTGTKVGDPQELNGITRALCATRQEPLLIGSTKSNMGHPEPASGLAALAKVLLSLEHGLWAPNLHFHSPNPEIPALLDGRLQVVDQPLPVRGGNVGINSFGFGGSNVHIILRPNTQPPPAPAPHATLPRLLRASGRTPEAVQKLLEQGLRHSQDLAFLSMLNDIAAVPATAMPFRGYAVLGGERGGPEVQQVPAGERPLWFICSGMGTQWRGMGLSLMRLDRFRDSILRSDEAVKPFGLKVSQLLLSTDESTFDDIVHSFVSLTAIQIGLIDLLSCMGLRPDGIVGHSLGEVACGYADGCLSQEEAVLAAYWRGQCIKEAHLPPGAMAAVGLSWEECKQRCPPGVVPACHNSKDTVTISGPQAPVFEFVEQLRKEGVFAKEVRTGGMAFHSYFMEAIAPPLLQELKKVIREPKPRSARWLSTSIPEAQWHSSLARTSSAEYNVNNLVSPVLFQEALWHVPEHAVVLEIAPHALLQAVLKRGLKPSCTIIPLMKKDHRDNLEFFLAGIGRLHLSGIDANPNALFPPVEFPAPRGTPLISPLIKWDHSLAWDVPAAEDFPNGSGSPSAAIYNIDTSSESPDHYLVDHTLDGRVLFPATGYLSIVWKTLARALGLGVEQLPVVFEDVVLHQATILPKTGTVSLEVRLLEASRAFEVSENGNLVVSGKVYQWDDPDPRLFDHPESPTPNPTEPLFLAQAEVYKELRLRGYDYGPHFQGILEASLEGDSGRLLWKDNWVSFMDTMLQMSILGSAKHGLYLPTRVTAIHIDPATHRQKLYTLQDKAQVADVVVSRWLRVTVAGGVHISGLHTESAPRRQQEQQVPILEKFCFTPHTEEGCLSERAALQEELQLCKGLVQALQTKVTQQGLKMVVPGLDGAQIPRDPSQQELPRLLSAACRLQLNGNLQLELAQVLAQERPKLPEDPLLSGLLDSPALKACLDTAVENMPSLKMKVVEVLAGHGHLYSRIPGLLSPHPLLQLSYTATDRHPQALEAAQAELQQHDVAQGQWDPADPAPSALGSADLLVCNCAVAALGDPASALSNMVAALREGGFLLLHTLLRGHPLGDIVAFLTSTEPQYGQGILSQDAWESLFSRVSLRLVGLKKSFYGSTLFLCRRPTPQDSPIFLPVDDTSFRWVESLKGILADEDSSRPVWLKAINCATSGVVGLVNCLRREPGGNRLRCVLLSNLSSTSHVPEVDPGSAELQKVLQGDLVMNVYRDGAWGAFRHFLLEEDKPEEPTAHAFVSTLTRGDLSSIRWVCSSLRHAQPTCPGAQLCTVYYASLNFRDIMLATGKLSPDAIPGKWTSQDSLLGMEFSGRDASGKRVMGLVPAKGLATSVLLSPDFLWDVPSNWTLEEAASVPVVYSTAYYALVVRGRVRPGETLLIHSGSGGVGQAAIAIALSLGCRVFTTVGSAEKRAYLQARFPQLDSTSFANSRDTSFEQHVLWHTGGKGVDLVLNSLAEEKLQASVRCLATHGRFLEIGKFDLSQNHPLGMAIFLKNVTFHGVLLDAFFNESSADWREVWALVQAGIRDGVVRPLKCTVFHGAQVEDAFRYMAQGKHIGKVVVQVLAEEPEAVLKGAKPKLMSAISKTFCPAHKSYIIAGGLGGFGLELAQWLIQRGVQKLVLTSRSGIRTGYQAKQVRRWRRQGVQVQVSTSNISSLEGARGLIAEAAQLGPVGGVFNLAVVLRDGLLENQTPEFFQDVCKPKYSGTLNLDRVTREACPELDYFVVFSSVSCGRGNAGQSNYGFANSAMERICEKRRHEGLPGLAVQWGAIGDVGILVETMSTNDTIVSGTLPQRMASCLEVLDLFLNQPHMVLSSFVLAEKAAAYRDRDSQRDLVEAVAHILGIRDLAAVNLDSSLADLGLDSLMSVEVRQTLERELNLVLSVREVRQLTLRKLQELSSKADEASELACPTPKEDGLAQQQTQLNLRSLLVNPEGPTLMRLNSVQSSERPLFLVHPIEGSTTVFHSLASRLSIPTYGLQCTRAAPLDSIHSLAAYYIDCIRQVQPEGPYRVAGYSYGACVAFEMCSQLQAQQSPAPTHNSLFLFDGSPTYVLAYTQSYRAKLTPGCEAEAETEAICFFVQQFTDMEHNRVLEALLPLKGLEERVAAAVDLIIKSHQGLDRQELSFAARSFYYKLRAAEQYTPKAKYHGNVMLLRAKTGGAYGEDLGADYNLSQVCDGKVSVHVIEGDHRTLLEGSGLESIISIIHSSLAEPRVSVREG

N=c1c(S(=O)(=O)c2ccc(Cl)cc2)cc2c(=O)n3ccccc3nc2n1C1CCCC1
EC50 [1]: 0.87 µM (active)
EC50 [2]: 11.4 µM (active)
EC50 [3]: 148 µM (inconclusive)
EC50 [4]: 24.8 µM (active)
EC50 [5]: 31.7 µM (active)
EC50 [6]: 135 µM (active)
EC50 [7]: > 120 µM (not active)

CCOC(=O)c1c(NC(=O)C2CCCCC2C(=O)O)sc2c1CCCCC2 (stereo unspecified)
EC50 [8]: 5.96 µM (active)

Cc1cc(C)cc(C(=O)NC(=S)Nc2ccc(-c3cc4ccccc4oc3=O)cc2)c1
EC50 [9]: 11.7 µM (active)
EC50 [10]: 12.4 µM (active)

CC(C)(C)c1ccc(N2C(=O)CC(C/C=C/c3ccccc3)C2=O)cc1 (stereo unspecified)
EC50 (cells [11]): > 350 µM (not active)
EC50 (cells [12]): > 350 µM (not active)

COC(=O)c1cc(C(=O)NC(C)C2CC3CCC2C3)cc([N+](=O)[O-])c1 (stereo unspecified)
IC50 (Fatty acid synthase): 11.5 µM (active)

Fc1ccccc1COc1ccccc1CNCc1ccncc1
EC50 [1]: 1.45 µM (active)
EC50 [2]: > 60 µM (not active)
EC50 [8]: 7.5 µM (active)

Cc1cccc2cc(CN(Cc3nnnn3Cc3ccccc3)C3CCCC3)c(O)nc12
EC50 [8]: 0.149 µM (active)

CC(=O)Nc1cccc(C(=O)/C=C/c2cccs2)c1
EC50 [9]: 11.3 µM (active)
EC50 [10]: 7.79 µM (active)

Cc1cccc(NC(=O)Nc2cccc(Oc3c(F)c(F)c(F)c(F)c3F)c2)c1
EC50 [1]: 3.06 µM (active)
EC50 [2]: 7.63 µM (active)
EC50 [9]: 17.3 µM (active)
EC50 [10]: 24.5 µM (active)
AC50 (INS1): 4.92 µM (active)

O=C(O)c1cn2c3c(cc(N4CCN(CCO)CC4)cc3c1=O)SCC2
GI50 (P388/ADR): > 100 µM (inactive)
GI50 (SN12K1): 40.5 µM (inactive)
GI50 (P388): 61.5 µM (inactive)

CCCNC(=O)c1cc(-c2ccco2)on1
EC50 (H4): 50.4 µM (active)
EC50 [13]: 59.3 µM (active)
EC50 (cells [11]): 10 µM (active)
EC50 [14]: 13.7 µM (active)
EC50 (cells [12]): > 350 µM (not active)

Cc1ccc(C)c(N2CCN(CCCNC(=O)Cn3cc4c(n3)CCCCC4)CC2)c1
EC50 [9]: 14.5 µM (active)
EC50 [10]: 11.8 µM (active)

CC(OCC(O)CN(C)CCOc1ccccc1)c1ccc(Cl)cc1 (stereo unspecified)
EC50 [8]: 3.76 µM (active)

CCOC(=O)c1c(NC(=O)CCC(=O)O)sc2c1CCCCC2
EC50 (cells [11]): > 350 µM (not active)
EC50 (cells [12]): 24.5 µM (active)

CCN(CCCCCN(C)C)Cc1cc2ccccc2o1
EC50 (cells [11]): > 350 µM (not active)
EC50 (cells [12]): > 350 µM (not active)

COc1cc(C(=O)Nc2nc(-c3ccc(Cl)cc3)c(C)s2)ccc1OCC(=O)Nc1ccc(F)cc1
EC50 [9]: 1.92 µM (active)
EC50 [10]: 1.46 µM (active)
